Measurements from US5453524A, “Phosphorus-containing isoprenoid derivatives” (Eisai Co., Ltd., priority 1991, dated 1995).
Counter-ions that a name gives are not always drawn.

Molecular target: T1, squalene synthetase (Rattus norvegicus, UniProt Q02769)
T1 construct: from tissue; host or cells: liver microsomes of cholestyramine-fed Sprague-Dawley rat
T1 sequence (Q02769 1-416): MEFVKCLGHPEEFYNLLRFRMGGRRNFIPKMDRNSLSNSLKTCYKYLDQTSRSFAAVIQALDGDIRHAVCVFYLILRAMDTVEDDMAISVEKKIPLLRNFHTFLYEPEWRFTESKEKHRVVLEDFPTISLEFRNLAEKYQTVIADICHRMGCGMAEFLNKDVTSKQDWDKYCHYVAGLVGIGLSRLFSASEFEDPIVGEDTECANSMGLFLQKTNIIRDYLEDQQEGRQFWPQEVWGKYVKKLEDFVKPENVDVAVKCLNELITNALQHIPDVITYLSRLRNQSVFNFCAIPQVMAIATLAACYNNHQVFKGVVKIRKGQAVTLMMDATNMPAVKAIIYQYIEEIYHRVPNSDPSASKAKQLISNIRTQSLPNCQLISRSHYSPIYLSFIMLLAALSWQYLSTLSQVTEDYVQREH
Experiment: inhibitory activity against squalene synthetase with liver microsome of cholestyramine-treated rat
Assay type: biochemical
Settings: liver microsome of cholestyramine-treated Sprague-Dawley rat; 10 μM 3H-FPP, pH 7.4, 37° C., 10 min
Experimental: Determination of inhibitory activity against squalene synthetase with liver microsome of cholestyramine-treated rat
1 mM NADPH (nicotinamide adenine dinucleotide phosphate)
10 μM ^3 H-FPP (farnesylpyrophosphoric acid) (10 mCi/mmol, a product of New England Nuclea Co.)
0.1 mg/ml liver microsome of rat 37° C., 10 min.
These components were put in a spit tube as follows: […]
______________________________________
sample solution of 5-fold concentration
1 mg/ml liver microsome of rat
The obtained mixture was preincubated at 37° C. for 5 minutes. 50 μl of 100 μM ^3 H-FPP (10 mCi/mmol; NEN) was added to the resulting mixture to initiate a reaction. After 10 minutes, 1 ml of 4N NaOH was added to the mixture to stop the reaction, followed by the addition thereto of 1 ml of ethanol. The obtained mixture was incubated at 80° C. for 12 hours, cooled with ice and extracted with petroleum ether twice. The petroleum ether layers were separated from the aqueous layer and evaporated to dryness with nitrogen gas. The residue was dissolved in 25 μl of chloroform containing squalene, famesol and cholesterol as markers. The obtained solution was applied to TLC (Empore; 412001-1) and developed under the following conditions:
benzene/isopropyl ether (1: 1), 6 min.
The band of squalene was cut from the plate and examined for radioactivity with a liquid scintillation counter to determine the inhibitory ratio.
(2) Preparation of Liver Microsome of Rat
A Sprague-Dawley rat was fed with food containing 2% of cholestyramine (Dowex 1-X2) for at least 5 days to enhance the cholesterol-biosynthesizing activity of the rat. At midnight (0:00), the liver was extirpated from the rat and washed with a 1.154 (w/v) ice-cooled KCl solution to remove the blood from the liver. The resulting liver was cut into small pieces with scissors, homogenized with a Teflon homogenizer of the loose fitting type and subjected to centrifugation (700 g, 10 min). The obtained supernatant was further subjected to centrifugation (15,000 g, 20 min) and the obtained supernatant was furthermore subjected to centrifugation (105,000 g 60 min) to be separated into a microsome fraction and a supernatant. This microsome fraction was washed with a 0.1M potassium phosphate buffer (pH: 7.4) once and suspended in a 0.1M potassium phosphate buffer in the liver concentration of 3 g/ml. The obtained suspension was examined for protein concentration by the Lowry method and the protein concentration was adjusted to 20 mg/ml.
IC50 values of the squalene synthetase inhibiting activity are given in Tables 1 to 5, wherein Me represents a methyl group and Et an ethyl group.

Compound	IC50 [nM]
CC(C)=CCC/C(C)=C/CC/C(C)=C/C=C/CC(C(=O)O)P(=O)(O)O (centres unmarked) [Example 34, Trisodium salt of (E,E,E)-1-carboxy-6,10,14-trimethyl-3,5,9,13-pentadecatetraenylphosphonic acid]	600
CCN(C/C=C(\C)CCC=C(C)C)CCCC(P(=O)(O)O)P(=O)(O)O [Example 44, 4-{(E)-N-Ethyl-3,7-dimethyl-2,6-octadienylamino}butyl-1,1-bis(phosphoric acid disodium salt)]	3
CC(C)=CCC/C(C)=C/CC/C(C)=C/CCC(C(=O)O)P(=O)(O)O (centres unmarked) [Example 33, Trisodium salt of-(E,E)-1-carboxy-5,9,13-trimethyl-4,8,12-tetradecatrienylphosphonic acid]	180
CC(C)=CCC/C(C)=C/CC(P(=O)(O)O)P(=O)(O)O [Example 15, (E)-4,8-Dimethyl3,7-nonadienyl-1,1-bis(phosphonic acid disodium salt)]	300
CC(C)=CCC/C(C)=C/CC/C(C)=C/CN(C)CCCC(C(=O)O)P(=O)(O)O (centres unmarked) [Example 35, Trisodium salt of 1-carboxy,4-{(E,E)-N-methyl-3,7,11-trimethyl-2,6,10-dodecatrienylamino}burylphosphonic acid]	20
CC(C)=CCC/C(C)=C/CCC(C)N(C)CCCCC(P(=O)(O)O)P(=O)(O)O (centres unmarked) [Example 46, 5-{(E}-N-Methyl-1,5,9-trimethyl-4,8-decadienylamino}-pentyl-1,1-bis(phosphonic acid disodium salt)]	2
CC(C)=CCC/C(C)=C/CC/C(C)=C/CCC(P(=O)(O)O)P(=O)(O)O [Example 14, (E,E)-5,9,13-Trimethyl-4,8,12-tetradecatrienyl-1,1-bis(phosphonic acid disodium salt)]	5
CC(C)=CCC/C(C)=C/CC/C(C)=C/CN(C)C(P(=O)(O)O)P(=O)(O)O [Example 48, {(E,E)-N-Methyl-3,7,11-trimethyl-2,6,10-dodecatrienylamino}methylbis(phosphonic acid disodium salt)]	1
CC(C)=CCC/C(C)=C/CN(C)CCCC(P(=O)(O)O)P(=O)(O)O [Example 43, 4-{(E)-N-Methyl-3,7-dimethyl-2,6-octadienylamino}butyl 1,1-bis(phosphonic acid disodium salt)]	3
CC(C)=CCC/C(C)=C/CCN(C)CCCC(P(=O)(O)O)P(=O)(O)O [Example 19, 4-{(E)-N-Methyl-4,8-dimethyl-3,7-nonadienylamino}-butyl-1,1-bis(phosphonic acid disodium salt)]	1
CC(C)=CCC/C(C)=C/CC/C(C)=C/CN(C)CCCC(P(=O)(O)O)P(=O)(O)O [Example 17, 4-{(E,E)-N-Methyl-3,7,11-trimethyl-2,6,10-dodecatrienylamino}butyl-1,1-bis(phosphonic acid disodium salt)]	2
C/C(=C\CC(P(=O)(O)O)P(=O)(O)O)CC/C=C(\C)c1ccccc1 [Example 21, (E,E)-4-Methyl-8-phenyl-3,7-nonadienyl-1,1-bis(phosphonic acid disodium salt)]	1
CC(C)=CCC/C(C)=C/CC/C(C)=C/CNC(P(=O)(O)O)P(=O)(O)O [Example 47, {(E,E)-3,7,11-Trimethyl-2,6,10-dodecatrienylamino}-methylbis(phosphonic acid sodium salt)]	2
C/C(=C\CC/C(C)=C/CC(P(=O)(O)O)P(=O)(O)O)CC/C=C/c1ccccc1 [Example 20, (E,E,E)-4,8-Dimethyl-12-phenyl-3,7,11-dodecatrienyl-1,1-bis(phosphonic acid disodium salt)]	2
CC(C)=CCC/C(C)=C/CCC(C)N(C)CCCC(P(=O)(O)O)P(=O)(O)O (centres unmarked) [Example 18, 4-{(E)-N-Methyl-1,5,9-trimethyl-4,8-decadienylamino}-butyl-1,1-bis(phosphonic acid disodium salt)]	3
CC(C)=CCC/C(C)=C/CNCCCC(P(=O)(O)O)P(=O)(O)O [Example 45, 4-{(E)-3,7-Dimethyl-2,6-octadienylamino}butyl-1,1-bis(phosphonic acid disodium salt)]	3
CC(C)=CCC/C(C)=C/CC/C(C)=C/CC(C(=O)O)P(=O)(O)O (centres unmarked) [Example 32, Trisodium salt of (E,E)-carboxy-4,8,12-trimethyl-3,7,11-tridecatrienylphosphonic acid]	1600
CC(C)=CCC/C(C)=C/CC/C(C)=C/CC(P(=O)(O)O)P(=O)(O)O [Example 13, (E,E)-4,8,12-Trimethyl-37,11-tridecatrienyl-1,1-bis(phosphonic acid disodium salt)]	3
CCOC(=O)C(C/C=C(\C)CC/C=C(\C)CCC=C(C)C)P(=O)(O)O (centres unmarked) [Example 31, Disodium (E,E)-1-carboethoxy4,8,12-trimethyl-3,7,11-tridecatrienylphosphonate]	9400
CC(C)=CCC/C(C)=C/CCC(C)N(C)CCCC(C(=O)O)P(=O)(O)O (centres unmarked) [Example 51, Trisodium salt of 1-carboxy-4,{(E)-N-methyl-1,5,9-trimethyl-4,8-decadienylamino}butylphosphonic acid]	14
CC(C)=CCC/C(C)=C/CC/C(C)=C/CN(C)CCCCC(P(=O)(O)O)P(=O)(O)O [Example 49, 5-{(E,E)-N-Methyl-3,7,11-trimethyl-2,6,10-dodecatrienylamino}pentyl-1,1-bis(phosphonic acid disodium salt)]	2
CC(C)=CCC/C(C)=C/CC/C(C)=C/CC/C(C)=C/CC(P(=O)(O)O)P(=O)(O)O [Example 16, (E,E,E)-4,8,12,16-Tetramethyl-3,7,11,15-heptadecatetraenyl-1,1-bis(phosphonic acid disodium salt)]	8
CCOP(=O)(O)C(C/C=C/C=C(\C)CC/C=C(\C)CCC=C(C)C)C(=O)O (centres unmarked) [Example 30, Disodium salt of ethyl (E,E,E)-1-carboxy-6,10,14-trimethyl-3,5,9,13-pentadecatetraenylphosphonate]	7100
C/C(=C\CC(P(=O)(O)O)P(=O)(O)O)CC/C=C/c1ccccc1 [Example 22, (E,E)-4-Methyl-8-phenyl-3,7-octadienyl-1,1-bis(phosphonic acid disodium salt)]	1
C/C(=C\CN(C)CCCC(P(=O)(O)O)P(=O)(O)O)CC/C=C(\C)c1ccccc1 [Example 23, 4-{(E,E)-N-Methyl-3-methyl-7-phenyl-2,6-octadienylamino}-butyl-1,1-bis(phosphonic acid disodium salt)]	0.5
CCOP(=O)(O)C(CC/C=C(\C)CC/C=C(\C)CCC=C(C)C)C(=O)O (centres unmarked) [Example 29, Disodium salt of ethyl(E,E)-1-carboxy-5,9,13-trimethyl-4,8,12-tetradecatrienylphosphonate]	7300
